# Test results published in patent publication US9365588B2, “Benzoxazines as modulators of ion channels” (Vertex Pharmaceuticals Incorporated, priority 2011, dated 2016).
# Target: human NaV 1.7 (Homo sapiens, UniProt Q15858)
# Test: E-VIPR optical membrane potential assay with electrical stimulation
# Type: cell-based
# Conditions: sodium channel inhibition; read-out: Binned Activity Data (IC50)
# Excerpt: Assays for Detecting and Measuring NaV Inhibition Properties of Compound E-VIPR Optical Membrane Potential Assay Method with Electrical Stimulation
# Sodium channels are voltage-dependent proteins that can be activated by inducing membrane voltage changes by applying electric fields. The electrical stimulation instrument and methods of use are described in Ion Channel Assay Methods PCT/US01/21652, herein incorporated by reference and are referred to as E-VIPR. The instrument comprises a microtiter plate handler, an optical system for exciting the coumarin dye while simultaneously recording the coumarin and oxonol emissions, a waveform generator, a current- or voltage-controlled amplifier, and a device for inserting electrodes in well. Under integrated computer control, this instrument passes user-programmed electrical stimulus protocols to cells within the wells of the microtiter plate.
# 24 hours before the assay on E-VIPR, HEK cells expressing human NaV subtype, like NaV 1.7, are seeded in 384-well poly-lysine coated plates at 15,000-20,000 cells per well. Other subtypes are performed in an analogous mode in a cell line expressing the NaV of interest. HEK cells are grown in media (exact composition is specific to each cell type and NaV subtype) supplemented with 10% FBS (Fetal Bovine Serum, qualified; GibcoBRL #16140-071) and 1% Pen-Strep (Penicillin-Streptomycin; GibcoBRL #15140-122). Cells are grown in vented cap flasks, in 90% humidity and 10% CO2, to 100% confluence. They are usually split by trypsinization 1:10 or 1:20, depending on scheduling needs, and grown for 2-3 days before the next split.
# Bath1 buffer. Glucose 10 mM (1.8 g/L), Magnesium Chloride (Anhydrous), 1 mM (0.095 g/L), Calcium Chloride, 2 mM (0.222 g/L), HEPES 10 mM (2.38 g/L), Potassium Chloride, 4.5 mM (0.335 g/L), Sodium Chloride 160 mM (9.35 g/L).
# Hexyl Dye Solution: Bath1 Buffer+0.5% β-cyclodextrin (make this prior to use, Sigma #C4767), 8 μM CC2-DMPE+2.5 μM DiSBAC6(3). To make the solution Add volume of 10% Pluronic F127 stock equal to volumes of CC2-DMPE+DiSBAC6(3). The order of preparation is first mix Pluronic and CC2-DMPE, then add DiSBAC6(3) while vortexing, then add Bath1+β-Cyclodextrin.
# 1) Pre-spot compounds (in neat DMSO) into compound plates. Vehicle control (neat DMSO), the positive control (20 mM DMSO stock tetracaine, 125 μM final in assay) and test compounds are added to each well at 160× desired final concentration in neat DMSO. Final compound plate volume will be 80 μL (80-fold intermediate dilution from 1 μL DMSO spot; 160-fold final dilution after transfer to cell plate). Final DMSO concentration for all wells in assay is 0.625%.
# 2) Prepare Hexyl Dye Solution.
# 3) Prepare cell plates. On the day of the assay, medium is aspirated and cells are washed three times with 100 μL of Bath1 Solution, maintaining 25 μL residual volume in each well.
# 4) Dispense 25 μL per well of Hexyl Dye Solution into cell plates. Incubate for 20-35 minutes at room temp or ambient conditions.
# 5) Dispense 80 μL per well of Bath1 into compound plates. Acid Yellow-17 (1 mM) is added and Potassium Chloride can be altered from 4.5 to 20 mM depending on the NaV subtype and assay sensitivity.
# 6) Wash cell plates three times with 100 μL per well of Bath1, leaving 25 μL of residual volume. Then transfer 25 uL per well from Compound Plates to Cell Plates. Incubate for 20-35 minutes at room temp/ambient condition
# 7) Read Plate on E-VIPR. Use the current-controlled amplifier to deliver stimulation wave pulses for typically 9 seconds and a scan rate of 400 Hz. A pre-stimulus recording is performed for 0.5 seconds to obtain the un-stimulated intensities baseline. The stimulatory waveform is applied for 9 seconds followed by 0.5 seconds of post-stimulation recording to examine the relaxation to the resting state. […]
# human NaV 1.7, sequence (Q15858 whole entry): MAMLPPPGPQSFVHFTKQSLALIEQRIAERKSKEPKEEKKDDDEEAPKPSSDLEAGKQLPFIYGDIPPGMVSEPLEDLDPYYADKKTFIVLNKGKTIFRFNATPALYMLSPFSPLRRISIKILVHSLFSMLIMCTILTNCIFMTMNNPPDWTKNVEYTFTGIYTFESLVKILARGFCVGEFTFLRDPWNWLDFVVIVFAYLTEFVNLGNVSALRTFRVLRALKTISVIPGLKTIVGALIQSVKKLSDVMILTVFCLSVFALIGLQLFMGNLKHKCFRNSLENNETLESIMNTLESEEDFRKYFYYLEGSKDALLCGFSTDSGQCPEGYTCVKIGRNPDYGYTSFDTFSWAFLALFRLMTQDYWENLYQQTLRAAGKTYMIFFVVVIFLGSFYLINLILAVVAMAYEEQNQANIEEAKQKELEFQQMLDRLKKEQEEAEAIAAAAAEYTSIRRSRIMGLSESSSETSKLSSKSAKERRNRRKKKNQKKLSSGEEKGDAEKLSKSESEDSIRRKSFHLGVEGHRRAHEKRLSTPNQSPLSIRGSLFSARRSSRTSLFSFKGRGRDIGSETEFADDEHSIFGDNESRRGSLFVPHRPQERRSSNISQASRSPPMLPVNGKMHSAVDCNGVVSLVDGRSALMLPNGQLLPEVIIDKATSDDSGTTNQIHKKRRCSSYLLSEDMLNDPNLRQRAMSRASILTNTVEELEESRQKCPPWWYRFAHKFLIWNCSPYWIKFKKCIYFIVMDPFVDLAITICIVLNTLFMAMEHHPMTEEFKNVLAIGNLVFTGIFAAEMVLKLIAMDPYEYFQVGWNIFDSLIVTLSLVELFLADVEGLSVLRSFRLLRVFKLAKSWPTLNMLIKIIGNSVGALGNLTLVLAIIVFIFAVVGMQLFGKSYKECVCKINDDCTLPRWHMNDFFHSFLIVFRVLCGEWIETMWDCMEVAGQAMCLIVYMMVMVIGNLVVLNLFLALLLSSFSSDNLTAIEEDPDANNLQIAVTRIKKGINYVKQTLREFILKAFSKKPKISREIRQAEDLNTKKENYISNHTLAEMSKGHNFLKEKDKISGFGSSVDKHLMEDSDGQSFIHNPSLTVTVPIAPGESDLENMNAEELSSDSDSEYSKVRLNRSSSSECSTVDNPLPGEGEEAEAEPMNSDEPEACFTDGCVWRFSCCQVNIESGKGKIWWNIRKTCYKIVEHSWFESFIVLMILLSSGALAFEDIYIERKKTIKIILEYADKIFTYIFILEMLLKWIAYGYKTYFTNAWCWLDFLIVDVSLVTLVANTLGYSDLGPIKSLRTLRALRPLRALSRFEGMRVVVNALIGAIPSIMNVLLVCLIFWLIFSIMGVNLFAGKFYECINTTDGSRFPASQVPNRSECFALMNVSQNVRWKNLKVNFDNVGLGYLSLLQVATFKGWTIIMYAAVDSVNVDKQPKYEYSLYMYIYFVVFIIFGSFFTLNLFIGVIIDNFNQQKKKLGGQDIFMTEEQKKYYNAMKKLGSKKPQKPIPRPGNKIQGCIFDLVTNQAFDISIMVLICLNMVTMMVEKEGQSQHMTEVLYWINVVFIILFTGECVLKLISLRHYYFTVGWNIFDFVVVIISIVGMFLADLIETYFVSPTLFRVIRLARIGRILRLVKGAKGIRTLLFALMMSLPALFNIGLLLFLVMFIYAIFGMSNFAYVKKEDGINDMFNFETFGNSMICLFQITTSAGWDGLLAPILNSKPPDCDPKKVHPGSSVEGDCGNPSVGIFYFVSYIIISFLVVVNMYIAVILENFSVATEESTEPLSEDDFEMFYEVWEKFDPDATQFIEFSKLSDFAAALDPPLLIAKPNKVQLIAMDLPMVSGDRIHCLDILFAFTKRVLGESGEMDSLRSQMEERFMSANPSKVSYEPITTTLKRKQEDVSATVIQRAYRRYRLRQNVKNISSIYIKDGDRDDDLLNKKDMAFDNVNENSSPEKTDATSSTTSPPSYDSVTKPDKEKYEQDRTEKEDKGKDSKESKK
row,SMILES,IC50 [nM]
1,CC(C)S(=O)(=O)c1ccc(C(=O)N2CCC3(CC2)Oc2cc(F)ccc2-c2c3cnn2C)cc1 [Compound 662],2000 to 5000
2,Cc1cc(OC(F)(F)F)ccc1C(=O)N1CCC2(CC1)Oc1ccccc1-c1c2cnn1C [Compound 84],2000 to 5000
3,CC(C)S(=O)(=O)c1ccc(C(=O)N2CCC3(CC2)Oc2ccccc2-c2c3cnn2C)cc1 [Compound 613],≤ 2000
4,N#Cc1ccc2n1-c1ccccc1OC21CCN(C(=O)c2ccc(OC3CNC3)cc2)CC1 [Compound 854],2000 to 5000
5,O=C(c1cccc(Cl)c1)N1CCC2(CC1)Oc1cc(Cl)ccc1-n1cccc12 [Compound 870],≤ 2000
6,COc1cc(C(=O)N2CCC3(CC2)Oc2cc(Cl)ccc2-n2cccc23)ccc1OC[C@@H]1COC(C)(C)O1 [Compound 751],≤ 2000
7,COc1ccc(C)cc1C(=O)N1CCC2(CC1)Oc1ccccc1-c1c2cnn1C [Compound 236],> 5000
8,CCn1ncc2c1-c1ccccc1OC21CCN(C(=O)c2ccc(S(=O)(=O)C(C)C)cc2)CC1 [Compound 253],≤ 2000
9,Cc1cc(C(=O)N2CCC3(CC2)Oc2ncccc2-n2nccc23)ccc1OC(C)C [Compound 255],≤ 2000
10,COc1cc(C(=O)N2CCC3(CC2)Oc2ccccc2-n2cccc23)ccc1OCC(C)(C)OC [Compound 847],≤ 2000
11,CNS(=O)(=O)c1ccc(C(=O)N2CCC3(CC2)Oc2ccccc2-n2c(C(F)(F)F)ccc23)cc1C [Compound 558],≤ 2000
12,COCCOc1ccc(C(=O)N2CCC3(CC2)Oc2ccccc2-c2c3cnn2C)cc1Cl [Compound 587],≤ 2000
13,O=C(c1ccc(OS(=O)(=O)C(F)(F)F)cc1)N1CCC2(CC1)Oc1ccccc1-n1c(C(F)(F)F)ccc12 [Compound 891],≤ 2000
14,CN(C)C(=O)c1ccccc1C(=O)N1CCC2(CC1)Oc1ccccc1-c1c2cnn1C [Compound 448],2000 to 5000
15,CC[C@H](C)Oc1ccc(C(=O)N2CCC3(CC2)Oc2ccccc2-n2cccc23)cc1C(F)(F)F [Compound 126],≤ 2000
16,N#Cc1ccc2n1-c1ccccc1OC21CCN(C(=O)c2ccc(F)cc2Cl)CC1 [Compound 807],> 5000
17,CC(C)CCOc1ccc(C(=O)N2CCC3(CC2)Oc2ccccc2-c2c3cnn2C)cc1 [Compound 174],≤ 2000
18,COCCOc1ccc(C(=O)N2CCC3(CC2)Oc2ccccc2-c2c3cnn2C)cc1C [Compound 761],≤ 2000
19,COc1ccc(C(=O)N2CCC3(CC2)Oc2ccccc2-c2c3ccn2C)cc1C(F)(F)F [Compound 568],≤ 2000

row,SMILES,IC50 [nM]
1,CC(C)CS(=O)(=O)c1ccc(C(=O)N2CCC3(CC2)Oc2ccccc2-n2c(C#N)ccc23)cc1 [Compound 436],≤ 2000
2,COC[C@@H](C)Oc1ccc(C(=O)N2CCC3(CC2)Oc2cc(Cl)ccc2-n2cccc23)cc1OC [Compound 31],≤ 2000
3,CC(C)Oc1ccc(C(=O)N2CCC3(CC2)Oc2ccccc2-c2c3cnn2C)cc1 [Compound 464],≤ 2000
4,CC(C)(N)c1ccc(C(=O)N2CCC3(CC2)Oc2ccccc2-n2c(C#N)ccc23)cc1 [Compound 323],2000 to 5000
5,Cn1ccc(C(=O)N2CCC3(CC2)Oc2cc(Cl)ccc2-n2cccc23)cc1=O [Compound 741],2000 to 5000
6,N#Cc1ccc2n1-c1ccccc1OC21CCN(C(=O)c2ccc(OC[C@H](O)CO)cc2)CC1 [Compound 789],> 5000
7,COc1cc(C(=O)N2CCC3(CC2)Oc2cc(F)ccc2-n2cccc23)ccc1OC[C@@H](O)CO [Compound 588],≤ 2000
8,COC[C@@H](C)Oc1ccc(C(=O)N2CCC3(CC2)Oc2ccccc2-n2cccc23)cc1C(F)(F)F [Compound 237],≤ 2000
9,COc1ccc(C(=O)N2CCC3(CC2)Oc2ccccc2-c2c3cnn2C)c(OC)c1OC [Compound 355],≤ 2000
10,COc1cc(C(=O)N2CCC3(CC2)Oc2ccccc2-n2cccc23)ccc1C(C)(C)OC [Compound 399],≤ 2000
11,O=C(c1ccccc1OC(F)F)N1CCC2(CC1)Oc1ccccc1-c1[nH]ncc12 [Compound 409],> 5000
12,Cc1cc(C(=O)N2CCC3(CC2)Oc2ccc(Cl)cc2-c2c3cnn2C)ccc1OC(C)C [Compound 213],≤ 2000
13,Cc1cc(C(=O)N2CCC3(CC2)Oc2cc(F)ccc2-n2cccc23)ccc1OC(C)C [Compound 38],≤ 2000
14,Cc1cc(C(=O)N2CCC3(CC2)Oc2ccccc2-n2cccc23)ccc1C#N [Compound 562],≤ 2000
15,COc1ccc(C(=O)N2CCC3(CC2)Oc2ccccc2-c2c3cnn2C)c(OC)c1 [Compound 187],≤ 2000
16,COc1c(F)cccc1C(=O)N1CCC2(CC1)Oc1ccccc1-c1c2cnn1C [Compound 699],≤ 2000
17,Cn1ncc2c1-c1ccccc1OC21CCN(C(=O)c2ccc3nc(Cl)sc3c2)CC1 [Compound 842],> 5000
18,CS(=O)(=O)c1ccc(C(=O)N2CCC3(CC2)Oc2cc(Cl)ccc2-n2cccc23)c(Cl)c1 [Compound 808],≤ 2000
19,CCn1ncc2c1-c1ccccc1OC21CCN(C(=O)c2ccc(C(C)(C)C)c(OC)c2)CC1 [Compound 372],≤ 2000

# Results, then the compound that gave them:
row,IC50 [nM],SMILES
1,≤ 2000,COc1ccc(C(=O)N2CCC3(CC2)Oc2cc(Cl)ccc2-n2cccc23)c(C(F)(F)F)c1 [Compound 129]
2,≤ 2000,Cc1nc2ccc(C(=O)N3CCC4(CC3)Oc3ccccc3-n3c(C(F)(F)F)ccc34)cc2s1 [Compound 503]
3,≤ 2000,CCOc1cccc(C(=O)N2CCC3(CC2)Oc2ccccc2-n2c(C#N)ccc23)c1F [Compound 485]
4,> 5000,CC(C)(C)c1ccc(C(=O)N2CCC3(CC2)Oc2ccccc2-n2c(C#N)ccc23)cn1 [Compound 849]
5,≤ 2000,Cc1nc(C(=O)N2CCC3(CC2)Oc2ccccc2-c2nn(C)cc23)ccc1OC(C)C [Compound 262]
6,≤ 2000,COc1cc(OC)c(C(=O)N2CCC3(CC2)Oc2cc(Cl)ccc2-n2cccc23)cc1CO [Compound 576]
7,≤ 2000,Cn1ncc2c1-c1cc(Cl)ccc1OC21CCN(C(=O)c2ccccc2OC(F)(F)F)CC1 [Compound 653]
8,≤ 2000,COc1cc(C(=O)N2CCC3(CC2)Oc2ccccc2-n2cccc23)ccc1C(C)(C)C [Compound 573]
9,≤ 2000,COc1ccc(F)c(C(=O)N2CCC3(CC2)Oc2cc(Cl)ccc2-n2cccc23)c1 [Compound 475]
10,≤ 2000,COc1c(CO)cccc1C(=O)N1CCC2(CC1)Oc1ccccc1-c1c2cnn1C [Compound 853]
11,≤ 2000,CC(C)Oc1ccc(C(=O)N2CCC3(CC2)Oc2ccccc2-n2c3ccc2S(C)(=O)=O)cc1F [Compound 282]
12,≤ 2000,CC(C)Oc1ccc(C(=O)N2CCC3(CC2)Oc2ccccc2-n2c3ccc2S(C)(=O)=O)cc1CO [Compound 296]
13,≤ 2000,Cc1cc(C(=O)N2CCC3(CC2)Oc2ccccc2-c2c3cnn2C)ccc1S(=O)(=O)C(C)(C)C [Compound 67]
14,2000 to 5000,Cn1cc2c(n1)-c1ccccc1OC21CCN(C(=O)c2ccc3nc(N)sc3c2)CC1 [Compound 325]
15,≤ 2000,COc1ccc(C(=O)N2CCC3(CC2)Oc2cc(F)ccc2-n2cccc23)cc1C(F)(F)F [Compound 249]
16,2000 to 5000,COc1cc(C(=O)N2CCC3(CC2)Oc2cc(Cl)ccc2-n2cccc23)ccc1O[C@H]1CCOC1 [Compound 690]
17,2000 to 5000,CC(C)N(C)S(=O)(=O)c1ccc(C(=O)N2CCC3(CC2)Oc2ccccc2-c2c3cnn2C)cc1 [Compound 233]
18,≤ 2000,Cn1ncc2c1-c1ccccc1OC21CCN(C(=O)c2cccnc2Oc2ccc(F)cc2)CC1 [Compound 862]
19,≤ 2000,COc1cc(C(=O)N2CCC3(CC2)Oc2ccccc2-c2c3cnn2C)ccc1C1CC1 [Compound 442]
